Data from paper PMC12723449, “From Pharmacophore to Warhead: NAD^+‐Targeting Triazoles as Mechanism‐Based Sirtuin Inhibitors” (Angewandte Chemie (International Ed. in English), 2025).

Target: T1, SIRT2 (Homo sapiens, UniProt Q8IXJ6)
T1 construct: For assay experiments, strep-tagged human SIRT1134−747 and SIRT256-356 were expressed and purified as previously; Strep-tag; made in house; host or cells: E. coli BL21 Star (DE3)
T1 sequence (Q8IXJ6 56-356 limits assumed): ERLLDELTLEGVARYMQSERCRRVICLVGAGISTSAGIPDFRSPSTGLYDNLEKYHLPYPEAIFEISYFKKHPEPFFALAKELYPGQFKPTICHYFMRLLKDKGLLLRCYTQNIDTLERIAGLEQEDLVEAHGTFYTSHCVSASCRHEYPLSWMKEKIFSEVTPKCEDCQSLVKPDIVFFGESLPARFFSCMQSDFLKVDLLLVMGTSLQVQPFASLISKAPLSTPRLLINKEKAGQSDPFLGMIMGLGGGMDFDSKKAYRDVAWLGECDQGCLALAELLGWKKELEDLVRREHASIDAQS
Experiment: Fluorescence polarization assay (FPA)
Assay type: binding
Conditions: with versus without NAD+
Protocol: Protein expression and purification for assays and crystallization
For assay experiments, strep-tagged human SIRT1134−747 and SIRT256-356 were expressed and purified as previously described.[2,4] Briefly, chemically competent E. coli BL21 Star (DE3) cells were transformed with pET30S-hSIRT1134−747 or pET30S-hSIRT256−356 plasmids. Cell cultures were grown in 2× YT medium (5 g/L NaCl, 16 g/L tryptone, 10 g/L yeast extract) supplemented with 50 μg/mL kanamycin at 37 °C reaching an OD600 of 0.6 − 0.7.
Protein expression of SIRT1134−747 and SIRT256−356 was induced with 1 mM IPTG (isopropyl β- D-1-thiogalactopyranoside), followed by incubation for 16 h at 20 °C. […]
Protein purity and identity were confirmed by SDS-PAGE and protein concentration was determined using the BCA assay with BSA as a standard. […] […]
A solution of 10 µL SIRT2 (final concentration of 6.0 µM) and SYPRO Orange (5x, Sigma-Aldrich, Germany) in assay buffer (25 mM Tris-HCl, 150 mM NaCl, 1 mM DTT, pH 8.0) was mixed with 10 µL of compound and incubated at 25 °C and 350 rpm for 5 min. […] Fluorescence intensity was recorded during a temperature gradient of 1°C per 20 s from 25 to 95°C using a real-time PCR machine (C1000 Touch™ Thermal Cycler, CFX96™ Real-Time System, BioRad, USA). […]

Compound | change of affinity upon NAD+ addition (FP)
COCCn1cc(COc2cccc(Cc3cnc(NC(=O)CSc4nc(C)cc(C)n4)s3)c2)nn1 [Compound 1, reference compound] | increased affinities upon NAD+ addition
Cc1cc(C)nc(SCC(=O)Nc2ncc(Cc3cccc(OCc4c[nH]nn4)c3)s2)n1 [Compound 7] | increased affinities upon NAD+ addition
